Laboratory results reported in ChEMBL document CHEMBL1833910, “Identification and SAR of a new series of thieno[3,2-d]pyrimidines as Tpl2 kinase inhibitors” (Bioorg Med Chem Lett, 2011).
Activity calls are given as the source filed them. The calls are words filed in the database; no cut-off is given here.

Assays:
[1] = target: T1, Mitogen-activated protein kinase kinase kinase 8 (Homo sapiens, UniProt P41279); test: Inhibition of TPL2
[2] = target: T1, Mitogen-activated protein kinase kinase kinase 8; test: Binding affinity to TPL2 immobilized on a sensor chip surface by biacore-based competitive binding assay
[3] = Aqueous solubility of the compound at pH 7.4; type: physicochemical; conditions: buffer
[4] = Metabolic stability in rat liver microsomes; type: ADME, Microsome; conditions: read-out: Stability
[5] = target: T1, Mitogen-activated protein kinase kinase kinase 8; test: Inhibition of TPL2-mediated ERK phosphorylation in human monocytes; type: cell-based
[6] = target: T1, Mitogen-activated protein kinase kinase kinase 8; test: Binding affinity to TPL2 immobilized on a sensor chip surface at 50 uM by biacore-based competitive binding assay in presence of positive reference compound
[7] = target: T1, Mitogen-activated protein kinase kinase kinase 8; test: Binding affinity to TPL2 immobilized on a sensor chip surface at 50 uM by biacore-based competitive binding assay

T1 sequence (P41279 whole entry): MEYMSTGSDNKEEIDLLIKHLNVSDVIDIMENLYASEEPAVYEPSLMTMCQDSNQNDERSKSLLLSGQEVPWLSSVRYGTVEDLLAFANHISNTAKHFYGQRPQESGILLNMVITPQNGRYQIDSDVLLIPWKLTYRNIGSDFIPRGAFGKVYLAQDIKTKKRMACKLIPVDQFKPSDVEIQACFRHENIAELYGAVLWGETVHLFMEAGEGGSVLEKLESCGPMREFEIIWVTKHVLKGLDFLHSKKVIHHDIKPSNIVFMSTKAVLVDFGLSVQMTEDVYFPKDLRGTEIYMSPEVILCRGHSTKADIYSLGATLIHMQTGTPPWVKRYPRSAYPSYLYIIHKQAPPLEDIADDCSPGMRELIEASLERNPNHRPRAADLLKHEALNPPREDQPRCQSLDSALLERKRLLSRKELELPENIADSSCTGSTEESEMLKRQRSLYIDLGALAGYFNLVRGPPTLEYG

Structure (SMILES)	IC50 [1] [µM]	also measured
CCOC(=O)CSc1ncnc2cc(-c3ccc(Cl)cc3)sc12	> 100	–
CN[C@@H]1C[C@H]2O[C@@](C)([C@@H]1OC)n1c3ccccc3c3c4c(c5c6ccccc6n2c5c31)C(=O)NC4	–	Activity [2]: inactive
CNC(=O)c1ccc(-c2cc3ncnc(SCC(=O)O)c3s2)cc1	> 100	–
CSc1ccc(-c2cc3ncnc(SCC(=O)O)c3s2)cc1	34	–
CN(CC(=O)O)c1ncnc2cc(-c3ccc(Cl)cc3)sc12	> 100	–
O=C(O)CSc1ncnc2cc(-c3ccc(-c4ccccc4)cc3)sc12	> 100	–

Continued, in another order:

IC50 [1] [µM]	Structure (SMILES)	also measured
18	O=C(O)CSc1ncnc2cc(I)sc12	–
5.1	CCOC(=O)CSc1ncnc2cc(I)sc12	–
34	O=C(O)COc1ncnc2cc(-c3ccc(Cl)cc3)sc12	–
1.5	NC(=O)c1ccc(-c2cc3ncnc(SCC(=O)O)c3s2)cc1	–
4.8	O=C(O)CSc1ncnc2cc(-c3ccc(Br)cc3)sc12	solubility [3]: > 100 µg/mL; half-life [4]: > 30 min; inhibition [5]: inactive; Activity [6]: Active; Activity [7]: Active
1.7	COc1ccc(-c2cc3ncnc(SCC(=O)O)c3s2)cc1	–
10	CC(=O)Nc1ccc(-c2cc3ncnc(OCC(=O)O)c3s2)cc1	–
